# Experimental data: patent US20100323990A1, “SHIP 1 MODULATOR PRODRUGS” (THE UNIVERSITY OF BRITISH COLUMBIA, priority 2006, published 2010)
# Assays:
# [1] = target: T1, ΔC2 SHIP (Homo sapiens, UniProt Q92835, DEL725-863); assay: Scintillation proximity assay, SHIP lacking its C2 domain; assay type: binding; settings: SPA beads
# T1 construct: His6; made in house; host or cells: mammalian expression vector pME18S
# T1 sequence (Q92835 with tags, fused parts or gaps DEL725-863): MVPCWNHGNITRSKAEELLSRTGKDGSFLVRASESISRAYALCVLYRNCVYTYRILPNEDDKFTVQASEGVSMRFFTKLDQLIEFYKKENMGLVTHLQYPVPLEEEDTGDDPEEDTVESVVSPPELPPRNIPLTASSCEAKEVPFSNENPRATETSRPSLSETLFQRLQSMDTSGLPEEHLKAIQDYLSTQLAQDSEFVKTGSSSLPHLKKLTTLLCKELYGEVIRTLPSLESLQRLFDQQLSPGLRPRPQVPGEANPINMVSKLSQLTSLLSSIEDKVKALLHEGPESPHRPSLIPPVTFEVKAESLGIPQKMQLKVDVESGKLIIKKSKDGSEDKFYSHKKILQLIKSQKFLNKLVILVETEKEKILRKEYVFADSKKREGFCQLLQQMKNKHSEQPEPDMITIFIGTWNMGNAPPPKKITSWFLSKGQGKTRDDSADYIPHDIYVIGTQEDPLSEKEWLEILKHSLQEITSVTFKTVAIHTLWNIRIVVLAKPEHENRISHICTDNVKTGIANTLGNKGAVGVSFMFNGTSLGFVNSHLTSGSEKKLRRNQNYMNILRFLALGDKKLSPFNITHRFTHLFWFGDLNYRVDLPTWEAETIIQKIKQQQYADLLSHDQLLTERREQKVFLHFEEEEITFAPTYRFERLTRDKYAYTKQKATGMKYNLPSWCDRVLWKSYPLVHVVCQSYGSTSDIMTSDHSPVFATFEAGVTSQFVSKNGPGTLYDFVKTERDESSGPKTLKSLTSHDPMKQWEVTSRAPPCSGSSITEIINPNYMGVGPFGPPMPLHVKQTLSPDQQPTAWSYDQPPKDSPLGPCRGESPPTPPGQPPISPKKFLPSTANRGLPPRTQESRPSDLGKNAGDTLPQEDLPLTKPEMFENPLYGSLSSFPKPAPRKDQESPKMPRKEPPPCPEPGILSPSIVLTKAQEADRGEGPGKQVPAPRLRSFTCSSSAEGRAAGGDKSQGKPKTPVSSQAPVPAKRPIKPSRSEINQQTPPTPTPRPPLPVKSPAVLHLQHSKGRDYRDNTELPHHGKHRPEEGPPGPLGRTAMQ
# Protocol: Compound 100 was radiolabelled with tritium by GE Healthcare (Piscataway, N.J.) to a specific activity of 42 Ci/mmole. Copper chelate (His-Tag) YSi SPA Scintillation Beads (GE ealthcare, Piscataway, N.J.) were diluted in 0.25% BSA/TBS to 1.5 mg/mL and recombinant, His6-tagged protein added at the indicated concentrations: wild-type (1 pM), ΔC2 SHIP enzyme (1 pM) or C2 domain (10 nM). Protein was allowed to bind 1 h at 23° C., and 250 μg of beads were aliquoted per well of a 96-well plate. 5 μCi of [^3H]-Compound 100 was added per well, the plate gently agitated for 30 min and the amount of bead associated radioactivity quantified by counting in a Wallac BetaPlate plate scintillation counter.
# Isolated recombinant, His6-tagged C2 domain was expressed and its PI-3,4-P2 binding ability was determined using protein lipid overlay assays. Purified C2 domain was incubated with membrane strips spotted with PI-3,4-P2 and bound protein detected using an anti-His6 antibody. As shown in FIG. 11C the C2 domain bound PI-3,4-P2 and this binding was inhibited by Compound 100, consistent with both Compound 100 and PI-3,4-P2 interacting with the C2 domain at a common binding site.
# [2] = target: T1, ΔC2 SHIP; assay: SHIP enzyme assay with C2 domain deleted SHIP; assay type: biochemical; settings: PI-3,4-P2 20 μM, Compound 100 3 μM, 30 μM IP4
# Excerpt: A His6 tagged SHIP ΔC2 domain deletion mutant (deleting residues 725 to 863) in the mammalian expression vector pME18S was generated by a standard PCR-based methodology. An N-terminal His6 C2 domain construct was also generated by PCR inserted into the pET28C bacterial expression vector using EcoRI and NdeI restriction sites.
# The allosteric regulation of enzymes has remained under-appreciated primarily because allosteric effectors are not easy to find. The molecular mechanism by which Compound 100 activated SHIP was investigated, first by performing classical enzyme kinetic analysis of its phosphatase activity. Activity measurements were performed with substrate concentrations from 10-100 μM.
# The SHIP protein contains a C2 domain located at the carboxyterminal end of its phosphatase domain. […] SHIP lacking its the C2 domain (ΔC2 SHIP) was prepared.
# [3] = test system: 100 protein kinase and phosphatase targets; assay: Profiling against 100 protein kinase and phosphatase targets (SignalChem); assay type: biochemical; settings: 2 μM final concentration; changes <25% not considered significant
# Protocol: Compound profiling activity was undertaken using 100 protein kinase and phosphatase targets by SignalChem (Richmond, BC, Canada. www.signalchem.com) against compound Compound 100 (2 μM final concentration). Protein kinase assays were performed in the presence of 50 μM ATP at 30° C. for 15 min. Protein phosphatase activites were determined using pNPP as substrate and were also performed at 37° C. for 15 min. The activity of the enzymes in the presence of Compound 100 was compared to that in the vehicle control and expressed as a % change in activity relative to that observed in the vehicle control. Changes in activity of <25% were not considered significant. Enzymes affected by Compound 100 are plotted in an expanded graph in FIG. 12B.
smiles,measurement,setting,value
Cc1cc(O)cc2c1[C@]1(C)CCC3C(C)(C)CCC[C@]3(C)[C@H]1C2 (stereo partly drawn) [Compound 100],binding of [3H]-Compound 100 to SHIP lacking its C2 domain,[1],not to SHIP lacking its C2 domain
same,enhancement of ΔC2 SHIP activity,[2],could not be enhanced
same,off-target effects on 100 other kinases and phosphatases,[3],minimal off-target effects
